Literature values, collected in patent US6586576B2, “Preparation method of azithromycin hydrates” (Teva Pharmaceutical Industries LTD, priority 2000, dated 2003).
Read-outs that look alike come from different tables or passages of the source. One block for each compound: values may come before it.

Assays:
[1] = crystal/hydrate form, per EP 298 650 and CN 1,093,370

SMILES: CC[C@H]1OC(=O)[C@H](C)[C@@H](O[C@H]2C[C@@](C)(OC)[C@@H](O)[C@H](C)O2)[C@H](C)[C@@H](O[C@@H]2O[C@H](C)C[C@H](N(C)C)[C@H]2O)[C@](C)(O)C[C@@H](C)CN(C)[C@H](C)[C@@H](O)[C@]1(C)O [azithromycin dihydrate]
hygroscopic nature ([1]; dihydrate): less hygroscopic than the previously known azithromycin monohydrate

hygroscopic nature ([1]; monohydrate): hygroscopic
SMILES: CC[C@H]1OC(=O)[C@H](C)[C@@H](O[C@H]2C[C@@](C)(OC)[C@@H](O)[C@H](C)O2)[C@H](C)[C@@H](O[C@@H]2O[C@H](C)C[C@H](N(C)C)[C@H]2O)[C@](C)(O)C[C@@H](C)CN(C)[C@H](C)[C@@H](O)[C@]1(C)O [azithromycin monohydrate]

stability under acidic conditions: not stable
SMILES: CC[C@H]1OC(=O)C(C)C(OC2CC(C)(OC)C(O)C(C)O2)C(C)C(OC2OC(C)CC(N(C)C)C2O)C(C)(O)CC(C)CN(C)C(C)C(O)C1(C)O (stereo partly drawn) [azithromycin, 9-deoxo-9a-aza-9a-methyl-9a-homoerythromycin A]
